The values below are quoted from earlier work in patent US20230398111A1, “ORAL FORMULATIONS OF NINTEDANIB AND METHOD OF MANUFACTURING THEREOF” (BDR PHARMACEUTICALS INTERNATIONAL PRIVATE LIMITED, priority 2020, published 2023).

Structures are written as SMILES.

The conditions of this series: neutral conditions / neutral pH.

As for `COC(=O)c1ccc2c(c1)NC(=O)/C2=C(\Nc1ccc(N(C)C(=O)CN2CCN(C)CC2)cc1)c1ccccc1` [Nintedanib esylate, methyl-2-hydroxy-3-[N-[4-[methyl-[2-(4-methylpiperazin-1-yl)acetyl]amino]phenyl]-C-phenylcarbonimidoyl]-1H-indole-6-carboxylate ethanesulfonic acid], the solubility result is “poor solubility”.
